Calls of active or inactive are those of the source. No cut-off for these calls is given here.
Columns and labels:
Mus musculus [1] = test: Toxicity in Swiss mouse assessed as impairment in exploratory behavior at 10 mg/kg, ig treated 30 mins before training measured up to 4 mins by open-field test; assay type: organism-based; conditions: in vivo, po
Mus musculus [2] = test: Cognitive enhancement activity in Swiss mouse assessed as step-through latency at 10 mg/kg, ig treated 30 mins before training measured 24 hrs after training trial by passive avoidance test; assay type: functional, organism-based
[3] = biological target: T1, Acetylcholinesterase (Mus musculus) (UniProt P21836); test: (§1) Inhibition of AChE in Swiss mouse cerebral cortex homogenate using acetylthiocholine as substrate assessed as acetylthiocholine level per mg protein at 200 uM preincubated for 2 mins followed by substrate addition by DTNB based assay (reference value: 9.6 +/- 0.5 umol/hr)
T1 sequence (whole entry): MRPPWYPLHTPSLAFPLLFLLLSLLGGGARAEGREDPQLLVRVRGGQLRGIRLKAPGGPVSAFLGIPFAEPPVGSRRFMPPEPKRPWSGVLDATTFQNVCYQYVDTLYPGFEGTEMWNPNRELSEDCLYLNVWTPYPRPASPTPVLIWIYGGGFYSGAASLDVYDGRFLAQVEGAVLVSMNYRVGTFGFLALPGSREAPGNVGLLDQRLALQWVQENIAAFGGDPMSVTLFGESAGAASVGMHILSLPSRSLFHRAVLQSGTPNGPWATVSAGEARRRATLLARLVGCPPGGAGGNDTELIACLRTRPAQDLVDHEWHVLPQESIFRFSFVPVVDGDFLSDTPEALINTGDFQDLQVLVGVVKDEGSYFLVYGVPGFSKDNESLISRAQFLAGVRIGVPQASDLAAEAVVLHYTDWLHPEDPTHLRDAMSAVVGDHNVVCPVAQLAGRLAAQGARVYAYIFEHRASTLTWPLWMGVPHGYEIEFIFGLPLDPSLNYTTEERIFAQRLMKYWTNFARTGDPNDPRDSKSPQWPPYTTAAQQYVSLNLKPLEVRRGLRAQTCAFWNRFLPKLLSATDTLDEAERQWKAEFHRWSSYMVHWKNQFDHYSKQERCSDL

[4] = biological target: T1, Acetylcholinesterase (Mus musculus); test: Inhibition of AChE in Swiss mouse cerebral cortex homogenate using acetylthiocholine as substrate assessed as acetylthiocholine level per mg protein at 1 uM preincubated for 2 mins followed by substrate addition by DTNB based assay relative to acetylthiocholine
Mus musculus [5] = test: Toxicity in Swiss mouse assessed as impairment in locomotory activity at 10 mg/kg, ig treated immediately post-training measured up to 4 mins by open-field test; assay type: organism-based; conditions: in vivo, po
[6] = Antioxidant activity assessed as ABTS radical scavenging activity at 200 uM after 30 mins (reference value: 100%); assay type: functional
[7] = Antioxidant activity assessed as ABTS radical scavenging activity at 10 uM after 30 mins (reference value: 100%); assay type: functional
[8] = Antioxidant activity assessed as DPPH radical scavenging activity at 200 uM after 30 mins (reference value: 100%); assay type: functional
[9] = biological target: T1, Acetylcholinesterase (Mus musculus); test: Inhibition of AChE in Swiss mouse cerebral cortex homogenate using acetylthiocholine as substrate assessed as acetylthiocholine level per mg protein at 10 uM preincubated for 2 mins followed by substrate addition by DTNB based assay (reference value: 9.6 +/- 0.5 umol/hr)
[10] = biological target: T1, Acetylcholinesterase (Mus musculus); test: as §1, with “100” for “200”, “umol/hr) (reference value: 9.6 +/- 0.5 umol/hr)” for “umol/hr)”
Mus musculus [11] = test: Toxicity in Swiss mouse assessed as impairment in exploratory behavior at 10 mg/kg, ig treated immediately post-training measured up to 4 mins by open-field test; assay type: organism-based; conditions: in vivo, po
[12] = Antioxidant activity assessed as DPPH radical scavenging activity at 1 uM after 30 mins (reference value: 100%); assay type: functional
[13] = Antioxidant activity assessed as ABTS radical scavenging activity at 100 uM after 30 mins (reference value: 100%); assay type: functional
Mus musculus [14] = test: Toxicity in Swiss mouse assessed as impairment in locomotory activity at 10 mg/kg, ig treated 30 mins before training measured up to 4 mins by open-field test; assay type: organism-based; conditions: in vivo, po
[15] = Antioxidant activity assessed as ABTS radical scavenging activity at 1 uM after 30 mins (reference value: 100%); assay type: functional
[16] = Antioxidant activity assessed as DPPH radical scavenging activity at 10 uM after 30 mins (reference value: 100%); assay type: functional
Mus musculus [17] = test: Toxicity in Swiss mouse assessed as impairment in locomotory activity at 10 mg/kg, ig treated 30 mins before test session measured up to 4 mins by open-field test; assay type: organism-based; conditions: in vivo, po
Mus musculus [18] = test: Cognitive enhancement activity in Swiss mouse assessed as increase in step-through latency at 10 mg/kg, ig treated immediately post-training measured 24 hrs after training trial by passive avoidance test relative to control; assay type: functional
Mus musculus [19] = test: Toxicity in Swiss mouse assessed as impairment in exploratory behavior at 10 mg/kg, ig treated 30 mins before test session measured up to 4 mins by open-field test; assay type: organism-based; conditions: in vivo, po
[20] = biological target: T1, Acetylcholinesterase (Mus musculus); test: Inhibition of AChE in Swiss mouse cerebral cortex homogenate using acetylthiocholine as substrate assessed as acetylthiocholine level per mg protein at 1 uM preincubated for 2 mins followed by substrate addition by DTNB based assay (reference value: 9.6 +/- 0.5 umol/hr)
Mus musculus [21] = test: Cognitive enhancement activity in Swiss mouse assessed as increase in step-through latency at 10 mg/kg, ig treated 30 mins before test session measured 24 hrs after training trial by passive avoidance test relative to control; assay type: functional
[22] = Antioxidant activity assessed as DPPH radical scavenging activity at 100 uM after 30 mins (reference value: 100%); assay type: functional
[23] = biological target: T1, Acetylcholinesterase (Mus musculus); test: Inhibition of AChE in Swiss mouse cerebral cortex homogenate using acetylthiocholine as substrate assessed as acetylthiocholine level per mg protein at 200 uM preincubated for 2 mins followed by substrate addition by DTNB based assay relative to acetylthiocholine

SMILES: Fc1ccc([Se]c2ncnc3[nH]cnc23)cc1
- Activity (Mus musculus [1]): Non-Toxic
- Activity (Mus musculus [2]): inactive
- Activity [3]: 6.6 µmol/h
- Imax [4]: 31.2%
- Activity (Mus musculus [5]): Non-Toxic
- Activity [6]: 96.9%
- Activity [7]: 101%
- Activity [8]: 98%
- Activity [9]: 6.5 µmol/h
- Activity [10]: 6.6 µmol/h
- Activity (Mus musculus [11]): Non-Toxic
- Activity [12]: 99.4%
- Activity [13]: 99.7%
- Activity (Mus musculus [14]): Non-Toxic
- Activity [15]: 99.7%
- Activity [16]: 99.4%
- Activity (Mus musculus [17]): Non-Toxic
- Activity (Mus musculus [18]): 52%
- Activity (Mus musculus [19]): Non-Toxic
- Activity [20]: 6.6 µmol/h
- Activity (Mus musculus [21]): 44%
- Activity [22]: 98.6%

SMILES: Cc1ccc([Se]c2ncnc3[nH]cnc23)cc1
- Activity [3]: 8.9 µmol/h
- Activity [6]: 61.5%
- Activity [7]: 98%
- Activity [8]: 93%
- Activity [9]: 9.3 µmol/h
- Activity [10]: 8.9 µmol/h
- Activity [12]: 101%
- Activity [13]: 81.7%
- Activity [15]: 100%
- Activity [16]: 99.7%
- Activity [20]: 8.7 µmol/h
- Activity [22]: 96.3%

SMILES: COc1ccc([Se]c2ncnc3[nH]cnc23)cc1
- Activity [3]: 8.8 µmol/h
- Activity [6]: 93.5%
- Activity [7]: 98.1%
- Activity [8]: 97.5%
- Activity [9]: 11.3 µmol/h
- Activity [10]: 11 µmol/h
- Activity [12]: 99.8%
- Activity [13]: 97.1%
- Activity [15]: 101%
- Activity [16]: 99.7%
- Activity [20]: 10.4 µmol/h
- Activity [22]: 98.5%

SMILES: FC(F)(F)c1cccc([Se]c2ncnc3[nH]cnc23)c1
- Activity [3]: 8.2 µmol/h
- Activity [6]: 97.6%
- Activity [7]: 98.9%
- Activity [8]: 99%
- Activity [9]: 8.9 µmol/h
- Activity [10]: 8.2 µmol/h
- Activity [12]: 99.7%
- Activity [13]: 97.9%
- Activity [15]: 99.4%
- Activity [16]: 99.4%
- Activity [20]: 7.9 µmol/h
- Activity [22]: 99.4%

SMILES: Cc1ccccc1[Se]c1ncnc2[nH]cnc12
- Activity [3]: 6.3 µmol/h
- Activity [6]: 94.8%
- Activity [7]: 96.9%
- Activity [8]: 98.7%
- Activity [9]: 7.6 µmol/h
- Activity [10]: 7.1 µmol/h
- Activity [12]: 100%
- Activity [13]: 97.7%
- Activity [15]: 99.3%
- Activity [16]: 100%
- Imax [23]: 34.4%
- Activity [20]: 7.9 µmol/h
- Activity [22]: 99.3%

SMILES: Clc1ccc([Se]c2ncnc3[nH]cnc23)cc1
- Activity [3]: 7.8 µmol/h
- Activity [6]: 72.6%
- Activity [7]: 98.4%
- Activity [8]: 68%
- Activity [9]: 7.3 µmol/h
- Activity [10]: 7.8 µmol/h
- Activity [12]: 100%
- Activity [13]: 86.5%
- Activity [15]: 99.5%
- Activity [16]: 98.8%
- Activity [20]: 7.2 µmol/h
- Activity [22]: 85.9%

SMILES: c1ccc([Se]c2ncnc3[nH]cnc23)cc1
- Activity [3]: 7.6 µmol/h
- Activity [6]: 86.5%
- Activity [7]: 98.8%
- Activity [8]: 90.1%
- Activity [9]: 7.6 µmol/h
- Activity [10]: 7.7 µmol/h
- Activity [12]: 99.4%
- Activity [13]: 93.2%
- Activity [15]: 99.9%
- Activity [16]: 99.4%
- Activity [20]: 7.8 µmol/h
- Activity [22]: 95.1%

Reference: ChEMBL document CHEMBL4177699, “Organoselenium compounds from purines: Synthesis of 6-arylselanylpurines with antioxidant and anticholinesterase activities and memory improvement effect” (Bioorg Med Chem, 2017)
